Laboratory results taken from article PMC7997574, “Lead Optimization of Benzoxazolone Carboxamides as Orally Bioavailable and CNS Penetrant Acid Ceramidase Inhibitors” (Journal of Medicinal Chemistry, 2020).
Where “and” joins values, the source holds several entries; their conditions need not be identical. Identical values can stand only once. Like-named read-outs stand apart in the source and are kept apart here.

Columns and labels:
[1] = Maximum tolerated dose (MTD) study in C57BL/6 mice; format: in vivo, mouse; conditions: i.p. dose escalation 20, 40, 80, 120 mg kg^–1 over 4 days
Method: An MTD study was conducted on male C57BL/6 mice (15–19 g, 5 weeks old, SLAC Laboratory Animal Co. Ltd.). Animals were injected via intraperitoneal (i.p.) injection with single administration at 20 mg kg^–1 (N = 18, vehicle: 100% saline at 0.6 mg mL^–1) and multiple administrations for a duration of 4 days at 20 (N = 18, day 1), 40 (N = 18, day 2), 80 (N = 18, day 3), and 120 mg kg^–1 (N = 18, day 4). Clinical observations/samples of plasma, CSF, and brain were collected at 0.25, 0.5, 1, 4, 8, and 24 h. All procedures were performed in accordance with the Ethical Guidelines on the Protection of Animals Used for Scientific Purposes at the DMPK Group at Shanghai ChemPartner Co., Ltd.

AC = target: T1, AC (Homo sapiens, UniProt Q13510); assay: Kinetic studies on hAC-enriched lysates (Michaelis–Menten analysis, ki/KI); format: biochemical; parameters: expressed in transfected cells; conditions: time-dependent inhibition of hAC
T1 sequence (Q13510 22-395): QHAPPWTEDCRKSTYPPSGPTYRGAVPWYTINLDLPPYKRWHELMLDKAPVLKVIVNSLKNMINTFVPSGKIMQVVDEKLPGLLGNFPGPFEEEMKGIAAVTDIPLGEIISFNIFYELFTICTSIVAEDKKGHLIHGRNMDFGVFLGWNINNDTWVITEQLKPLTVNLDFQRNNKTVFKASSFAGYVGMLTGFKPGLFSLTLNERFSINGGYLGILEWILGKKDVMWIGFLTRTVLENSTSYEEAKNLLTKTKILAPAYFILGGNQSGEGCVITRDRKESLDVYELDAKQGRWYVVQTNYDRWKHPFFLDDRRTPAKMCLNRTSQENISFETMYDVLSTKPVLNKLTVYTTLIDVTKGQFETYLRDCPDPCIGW
Method: Assay conditions for the kinetic studies were the same as those described for the fluorogenic hAC assay. Enzyme-enriched lysate (2 μg) was incubated with the following concentrations of substrate Rbm14–12: 0.25, 0.5, 1, 2.5, 5, 10, 12.5, and 15 μM. Compound 22m was used at final concentrations of 100 and 400 nM. Initial velocities (V0) were determined and automatically fitted to the Michaelis–Menten equation to obtain the kinetic parameters (KM and Vmax). The graph is representative of two independent experiments, each performed in three technical replicates. Graphs and data analysis were performed using GraphPad Prism 5 software (GraphPad Software Inc., CA, USA).
hAC activity was measured as a function of reaction time in the presence of different concentrations of 22m. The apparent inactivation rate constant of hAC (kobs) was analyzed by nonlinear square fitting each data set to the pseudo-first-order rate equation Y = vi(1 – exp(−kobst))/kobs. Replotting of calculated kobs vs [22m] was made, and the kinetic parameter ki/KI was calculated by nonlinear square fitting data to the equation Y = kiI/(KI + I). The graphs are representative of two independent experiments, each performed in two technical replicates.

GalSph (d18:1) = assay: Brain GalSph levels in Twitcher mice (Krabbe's disease model); format: in vivo, mouse; conditions: for reduction of GalSph (d18:1) levels in the brains: Twitcher mice; for GalSph(d18:1) change (Figure 8): brain
Method: (§1) 4L;C* mice (C57BL/6 J/129SvEV) were randomly assigned to three treatment groups (N = 4–8 with mixed males and females) and dosed once a day i.p. with 90 or 30 mg kg^–1 of 22m or vehicle. Treatment started at 5 days of age for a duration of 14 days. The application volume was set to 10 μL per gram of body weight, and dosage was adjusted accordingly. Animals of all groups were sacrificed 1 h after the last dose, and the brain tissues and plasma were collected. The left brain containing cortex, cerebella, thalamus, and brainstem was analyzed for SphL levels by MS. Data were analyzed using the Student t test. The right brain containing cortex, cerebella, thalamus, and brainstem and plasma were analyzed for drug levels of 22m. All mice were housed under pathogen-free conditions in the animal facility, and animal experiment was performed according to the IACUC approved protocol (2018-0056) at Cincinnati Children’s Hospital Research Foundation. Wild Type (WT) (GALC+/+) and Twitcher (Twi) (GALC–/−) mice were genotyped by PCR as previously described.[58] Twi mice were randomly assigned to three treatment groups (N = 3 males + N = 3 females for each group) and dosed once a day i.p. with 90 or 30 mg kg^–122m or vehicle for a duration of 20 days. Treatment started at 10 days of age. The application volume was set to 10 μL per gram of body weight, and dosage was adjusted accordingly. Two groups (N = 3 males + N = 3 females for each group) of WT controls treated with vehicle or high dose (90 mg kg^–1) of 22m were also included in the study. Animals of all groups were sacrificed 1 h after the last dose, and the brain tissues and plasma were collected. The left brain containing cortex, cerebella, thalamus, and brainstem was analyzed for SphL levels by MS. Data were analyzed using the Student t test. The right brain containing cortex, cerebella, thalamus, and brainstem and plasma were analyzed for drug levels of 22m. All animal work in this study was performed in accordance with approved animal protocols from the Animal Care and Use Committee at the University of Illinois at Chicago.

[2] = Plasma and brain concentrations in Twitcher mice; format: in vivo; conditions: both sexes, Twitcher (GALC–/−), mouse, ip, 1 h after last dose (day 20)
Method: as §1

[3] = In vitro mouse brain tissue protein binding (equilibrium dialysis); format: in vitro ADME
Method: Studies were performed by the DMPK Group at Shanghai ChemPartner Co., Ltd., using the equilibrium dialysis method. Values are the mean of two technical replicates.

For CC(C)CNC(=O)n1c(=O)oc2cc(C3CCN(C)CC3)ccc21 [22m, N-Isobutyl-6-(1-methyl-4-piperidyl)-2-oxo-1,3-benzoxazole-3-carboxamide], the “clinical observations in MTD study” value [1] was “no clinical abnormalities were observed”, the ki (AC) was 0.15 min^–1 and the ki/KI (AC) was 0.02 μM^–1 min^–1 and 0.02±0.001 μM^–1 min^–1. For the same compound, the “reduction of GalSph (d18:1) levels in the brains” value (GalSph (d18:1); 30 mg kg^–1 i.p. once daily for 20 days) was 41%, the “reduction of GalSph (d18:1) levels in the brains” value (GalSph (d18:1); 90 mg kg^–1 i.p. once daily for 20 days) was 72% and the “GalSph(d18:1) change (Figure 8)” value (GalSph (d18:1); Twi 30 mg/kg i.p.) was -41%. The “GalSph(d18:1) change (Figure 8)” value (GalSph (d18:1); Twi 90 mg/kg i.p.) was -72%, the concentration at 1 h ([2]; brain, 30 mg kg^–1, Twitcher mice, 30 mg kg^–1 i.p., read-out: Cb (μM) brain concentration) was 114 µM and the concentration at 1 h ([2]; brain, 30 mg kg^–1, Twitcher mice, 30 mg kg^–1 i.p., read-out: Cb, u (μM) brain unbounded concentration) was 0.8 µM. It also gave a concentration at 1 h ([2]; brain, 90 mg kg^–1, Twitcher mice, 90 mg kg^–1 i.p., read-out: Cb (μM) brain concentration) of 308 µM, a concentration at 1 h ([2]; brain, 90 mg kg^–1, Twitcher mice, 90 mg kg^–1 i.p., read-out: Cb, u (μM) brain unbounded concentration) of 2.15 µM and a concentration at 1 h ([2]; plasma, 30 mg kg^–1, Twitcher mice, 30 mg kg^–1 i.p., read-out: Cp (μM) plasma concentration) of 0.85 µM. For the same compound, the concentration at 1 h ([2]; plasma, 30 mg kg^–1, Twitcher mice, 30 mg kg^–1 i.p., read-out: Cp,u (μM) plasma unbounded concentration) was 0.11 µM, the concentration at 1 h ([2]; plasma, 90 mg kg^–1, Twitcher mice, 90 mg kg^–1 i.p., read-out: Cp (μM) plasma concentration) was 3.85 µM and the concentration at 1 h ([2]; plasma, 90 mg kg^–1, Twitcher mice, 90 mg kg^–1 i.p., read-out: Cp,u (μM) plasma unbounded concentration) was 0.52 µM. The “Fb, u (%) brain fraction unbounded” value [3] was 0.70%.
